In publication PMC7287908, “N-Alkyl-2-[4-(trifluoromethyl)benzoyl]hydrazine-1-carboxamides and Their Analogues: Synthesis and Multitarget Biological Activity” (Molecules, 2020):
In brackets after ≈: the same amount, converted by molar mass. Like-named read-outs stand apart in the source and are kept apart here.

Key:
[1] = target: T1, BuChE from equine serum (EqBuChE) (Equus caballus, UniProt P81908); assay: biochemical; settings: mean ± SD, n = three independent experiments
T1 construct: butyrylcholinesterase from equine serum (EqBuChE); purchased Sigma-Aldrich (Prague, Czech Republic); host or cells: equine serum (natural source)
T1 sequence (P81908 whole entry): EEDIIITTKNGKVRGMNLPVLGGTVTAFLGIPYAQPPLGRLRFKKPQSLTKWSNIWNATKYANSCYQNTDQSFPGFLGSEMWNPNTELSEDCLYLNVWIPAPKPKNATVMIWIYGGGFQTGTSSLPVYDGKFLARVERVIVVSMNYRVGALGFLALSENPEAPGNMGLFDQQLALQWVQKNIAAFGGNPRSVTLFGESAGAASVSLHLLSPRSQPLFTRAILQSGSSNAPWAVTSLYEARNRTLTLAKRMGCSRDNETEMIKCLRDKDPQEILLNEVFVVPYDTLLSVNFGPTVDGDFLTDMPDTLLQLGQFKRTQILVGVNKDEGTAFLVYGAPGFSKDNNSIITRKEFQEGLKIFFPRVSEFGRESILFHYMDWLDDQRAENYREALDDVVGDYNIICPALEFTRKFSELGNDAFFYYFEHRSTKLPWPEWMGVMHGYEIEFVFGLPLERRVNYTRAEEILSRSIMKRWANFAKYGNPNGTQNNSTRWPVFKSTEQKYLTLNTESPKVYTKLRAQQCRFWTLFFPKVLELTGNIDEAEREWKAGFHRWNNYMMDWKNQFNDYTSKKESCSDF
Experimental: (§1) Newly synthesized N-alkyl-2-[4-(trifluoromethyl)benzoyl]hydrazine-1-carboxamides 2a–2q were evaluated for their in vitro potency to inhibit AChE from electric eel (EeAChE) and BuChE from equine serum (EqBuChE) using modified Ellman’s spectrophotometric method. […] The efficacy of inhibitors is expressed as IC50, i.e., the concentration causing 50% inhibition of the enzyme activity. Based on IC50 values for both enzymes, selectivity indexes (SI) as the ratio of IC50 for BuChE/IC50 for AChE to quantify the preference for AChE were calculated (Table 1).
(§2) IC50 values were determined using the spectrophotometric Ellman’s method modified according to Zdražilová et al., which is a simple, rapid and direct method to determine the SH and -S-S- group content. This method is widely used for the screening of the efficiency of cholinesterases inhibitors. The enzymatic activity is measured indirectly by quantifying the concentration of the 5-thio-2-nitrobenzoic acid ion formed in the reaction between the thiol reagent 5,5′-dithio-bis(2-nitrobenzoic acid) and thiocholine, a product of acetylthiocholine substrate hydrolysis by cholinesterases.
(§3) The enzyme activity in final reaction mixture (2000 µL) was 0.2 U/mL, concentration of acetylthiocholine (or butyrylthiocholine) 40 µM and concentration of 5,5′-dithio-bis(2-nitrobenzoic acid) 0.1 mM for all reactions. The tested compounds were dissolved in DMSO and then diluted in demineralized water to the concentration of 1 mM. […] All measurements were carried in triplicates and the average values of reaction rate (v0-uninhibited reaction, vi-inhibited reaction) were used for construction of the dependence v0/vi vs. concentration of inhibitor. From obtained equation of regression curve, IC50 values were calculated.
(§4) Acetylcholinesterase used was obtained from electric eel (Electrophorus electricus L.; EeAChE) and butyrylcholinesterase from equine serum (EqBuChE).

[2] = target: T2, AChE from electric eel (EeAChE) (Electrophorus electricus, UniProt O42275); assay: biochemical; settings: for IC50: electric eel AChE, mean ± SD, n = three independent experiments; for Selectivity BuChE/AChE (selectivity index, SI): ratio of IC50 for BuChE/IC50 for AChE
T2 construct: Acetylcholinesterase used was obtained from electric eel (Electrophorus electricus L; EeAChE); purchased Sigma-Aldrich (Prague, Czech Republic); host or cells: electric eel (natural source)
T2 sequence (O42275 24-633): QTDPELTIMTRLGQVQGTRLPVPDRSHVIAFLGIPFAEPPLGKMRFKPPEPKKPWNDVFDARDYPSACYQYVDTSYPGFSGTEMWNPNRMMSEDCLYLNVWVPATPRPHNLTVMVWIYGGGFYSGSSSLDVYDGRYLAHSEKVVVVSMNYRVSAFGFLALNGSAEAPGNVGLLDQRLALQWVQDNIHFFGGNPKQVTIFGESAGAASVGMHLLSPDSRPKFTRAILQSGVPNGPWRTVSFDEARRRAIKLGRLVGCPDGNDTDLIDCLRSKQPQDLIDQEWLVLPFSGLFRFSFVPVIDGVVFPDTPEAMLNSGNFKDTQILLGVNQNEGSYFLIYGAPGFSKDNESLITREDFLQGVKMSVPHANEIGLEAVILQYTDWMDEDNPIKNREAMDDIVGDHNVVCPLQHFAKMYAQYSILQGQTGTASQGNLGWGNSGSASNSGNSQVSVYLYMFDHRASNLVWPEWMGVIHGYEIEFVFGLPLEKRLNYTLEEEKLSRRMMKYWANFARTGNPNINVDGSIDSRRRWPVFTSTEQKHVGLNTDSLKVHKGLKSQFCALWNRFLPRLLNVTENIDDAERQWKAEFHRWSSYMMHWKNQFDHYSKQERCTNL
Experimental: as §1, §2, §3, §4

[3] = system: Mycobacterium tuberculosis 331/88 (H37Rv); assay: In vitro antimycobacterial activity (MIC); format: cell-based; settings: read-out: MIC M. tuberculosis
[4] = system: M. kansasii 235/80 and M. kansasii 6509/96; assay: In vitro antimycobacterial activity (MIC); format: cell-based; settings: Mycobacterium kansasii, read-out: MIC M. kansasii
[5] = system: HepG2 cells; assay: Cytostatic activity, MTT assay; format: cell-based, human; settings: HepG2, at a concentration of 100 µM
Experimental: (§5) Since compounds containing trifluoromethyl group has been known for their toxic action on eukaryotic cells and approved as anticancer drugs, we investigated cytostatic properties of the derivatives 2–4 using human hepatocellular carcinoma (HepG2) and monocyte (MonoMac6) cell lines. […] The remaining compounds have no cytostatic effect up to 50 µM. Higher concentrations were not investigated due to solubility problems, i.e., precipitation of crystals. […]
(§6) The cell viability was determined by 3-(4,5-dimethylthiazol-2-yl)-2,5-diphenyltetrazolium bromide (MTT) assay. […] The obtained formazan crystals were dissolved in 100 μL of DMSO and the optical density (OD) of the samples was measured at λ = 540 and 620 nm, respectively, employing an ELISA reader (iEMS Reader, Labsystems, Helsinki, Finland). OD620 values were subtracted from OD540 values and the percent of cytostasis was calculated using the following equation:Cytostatic effect (%) = [1 − (ODtreated/ODcontrol)] × 100 where ODtreated and ODcontrol correspond to the optical densities of the treated and the control cells, respectively). […]

[6] = system: MonoMac6 cells; assay: Cytostatic activity, MTT assay; format: cell-based, human; settings: MonoMac6, at a concentration of 100 µM
Experimental: as §5, §6

[7] = system: M. tuberculosis 331/88, M. avium 330/88, M. kansasii 235/80, M. kansasii 6509/96; assay: In vitro antimycobacterial activity (MIC), whole panel, strain not specified; format: cell-based; settings: panel of four mycobacterial strains; read-out: MIC (mycobacteria, strain not specified)

| Structure (SMILES) | Selectivity BuChE/AChE (selectivity index, SI) [2] | IC50 ([1]; read-out: IC50 BuChE) | IC50 ([2]; read-out: IC50 AChE) | also measured |
| --- | --- | --- | --- | --- |
| CNC(=O)NNC(=O)c1ccc(C(F)(F)F)cc1 [2a, N-Methyl-2-[4-(trifluoromethyl)benzoyl]hydrazine-1-carboxamide] | 2.7 | – | – | IC50 ([1]; IC50 BuChE): 84.2 ± 2.1 µM; IC50 ([2]; IC50 AChE): 31.2 ± 1.87 µM; MIC ([3]; H37RV): 1000 µM (≈ 261 µg/mL); MIC [4]: 1000 µM (≈ 261 µg/mL) |
| CCNC(=O)NNC(=O)c1ccc(C(F)(F)F)cc1 [2b, N-Ethyl-2-[4-(trifluoromethyl)benzoyl]hydrazine-1-carboxamide] | 1.8 | 103 ± 2.75 µM | 56.32 ± 0.54 µM | MIC ([3]; H37RV): 1000 µM (≈ 275 µg/mL); MIC [4]: 1000 µM (≈ 275 µg/mL) |
| CCCNC(=O)NNC(=O)c1ccc(C(F)(F)F)cc1 [2c, N-Propyl-2-[4-(trifluoromethyl)benzoyl]hydrazine-1-carboxamide] | – | 112.7 ± 0.98 µM | 82.3 ± 3.31 µM | – |
| CCCCNC(=O)NNC(=O)c1ccc(C(F)(F)F)cc1 [2d, N-Butyl-2-[4-(trifluoromethyl)benzoyl]hydrazine-1-carboxamide] | 2.3 | 87.8 ± 7.96 µM | 38.6 ± 1.32 µM | – |
| CCCCCNC(=O)NNC(=O)c1ccc(C(F)(F)F)cc1 [2e, N-Pentyl-2-[4-(trifluoromethyl)benzoyl]hydrazine-1-carboxamide] | 1.3 | 58 µM | 43.59 ± 0.41 µM | – |
| CCCCCCNC(=O)NNC(=O)c1ccc(C(F)(F)F)cc1 [2f, N-Hexyl-2-[4-(trifluoromethyl)benzoyl]hydrazine-1-carboxamide] | 1.5 | 72.5 ± 1.51 µM | 49.2 ± 2.36 µM | MIC ([3]; H37RV): 250 µM (≈ 82.8 µg/mL); MIC [4]: 250 µM (≈ 82.8 µg/mL) |
| CCCCCCCNC(=O)NNC(=O)c1ccc(C(F)(F)F)cc1 [2g, N-Heptyl-2-[4-(trifluoromethyl)benzoyl]hydrazine-1-carboxamide] | 1.3 | 79.3 ± 1.53 µM | 59.2 ± 2.38 µM | – |
| CCCCCCCCNC(=O)NNC(=O)c1ccc(C(F)(F)F)cc1 [2h, N-Octyl-2-[4-(trifluoromethyl)benzoyl]hydrazine-1-carboxamide] | 1.3 | 101.3 ± 0.99 µM | 77 ± 4.75 µM | – |
| CCCCCCCCCNC(=O)NNC(=O)c1ccc(C(F)(F)F)cc1 [2i, N-Nonyl-2-[4-(trifluoromethyl)benzoyl]hydrazine-1-carboxamide] | 0.8 | 82.2 ± 3.42 µM | 107 µM | – |
| CCCCCCCCCCNC(=O)NNC(=O)c1ccc(C(F)(F)F)cc1 [2j, N-Decyl-2-[4-(trifluoromethyl)benzoyl]hydrazine-1-carboxamide] | 3.9 | 192 ± 6.83 µM | 49.5 ± 1.74 µM | – |
| CCCCCCCCCCCNC(=O)NNC(=O)c1ccc(C(F)(F)F)cc1 [2k, 2-[4-(Trifluoromethyl)benzoyl]-N-undecylhydrazine-1-carboxamide] | 4.4 | 179 ± 2.96 µM | 40.71 ± 0.37 µM | – |
| CCCCCCCCCCCCNC(=O)NNC(=O)c1ccc(C(F)(F)F)cc1 [2l, N-Dodecyl-2-[4-(trifluoromethyl)benzoyl]hydrazine-1-carboxamide] | 5.8 | 264.14 ± 0.22 µM | 45.2 ± 0.69 µM | – |
| CCCCCCCCCCCCCNC(=O)NNC(=O)c1ccc(C(F)(F)F)cc1 [2m, N-Tridecyl-2-[4-(trifluoromethyl)benzoyl]hydrazine-1-carboxamide] | 9.6 | 277 ± 10.3 µM | – | IC50 ([1]; IC50 BuChE): 278 µM; IC50 ([2]; IC50 AChE): 28.9 ± 0.67 µM |
| CCCCCCCCCCCCCCNC(=O)NNC(=O)c1ccc(C(F)(F)F)cc1 [2n, N-Tetradecyl-2-[4-(trifluoromethyl)benzoyl]hydrazine-1-carboxamide] | 6.8 | 262 ± 17.2 µM | 38.7 ± 1.14 µM | – |
| CCCCCCCCCCCCCCCNC(=O)NNC(=O)c1ccc(C(F)(F)F)cc1 [2o, N-Pentadecyl-2-[4-(trifluoromethyl)benzoyl]hydrazine-1-carboxamide] | 8.6 | 233 ± 15.7 µM | 27 µM | – |
| CCCCCCCCCCCCCCCCNC(=O)NNC(=O)c1ccc(C(F)(F)F)cc1 [2p, N-Hexadecyl-2-[4-(trifluoromethyl)benzoyl]hydrazine-1-carboxamide] | 2.7 | 187 ± 13.2 µM | 68.63 ± 0.56 µM | – |
| CCCCCCCCCCCCCCCCCCNC(=O)NNC(=O)c1ccc(C(F)(F)F)cc1 [2q, N-Octadecyl-2-[4-(trifluoromethyl)benzoyl]hydrazine-1-carboxamide] | 2.0 | 146 ± 2.6 µM | 72.3 ± 2.01 µM | – |
| CCCCCC(=O)NNC(=O)c1ccc(C(F)(F)F)cc1 [3a, N′-Hexanoyl-4-(trifluoromethyl)benzohydrazide] | 1.6 | 110 ± 0.2 µM | 67.1 ± 3.05 µM | MIC ([3]; H37RV): 125 µM (≈ 37.8 µg/mL); MIC [4]: > 250 µM |
| CCCCCCCCCCCCCCCC(=O)NNC(=O)c1ccc(C(F)(F)F)cc1 [3b, N′-Palmitoyl-4-(trifluoromethyl)benzohydrazide] | 1.6 | 148.6 ± 0.36 µM | 91.9 ± 6.79 µM | – |
| NNC(=O)c1ccc(C(F)(F)F)cc1 [compound 1, 4-(Trifluoromethyl)benzohydrazide] | – | – | – | cytostatic action [5]: avoided any cytostatic action; cytostatic action [6]: avoided any cytostatic action; IC50 ([1]; IC50 BuChE): 204 ± 2.69 µM |
| CCCCCCNc1nnc(-c2ccc(C(F)(F)F)cc2)o1 [compound 4, N-Hexyl-5-[4-(trifluoromethyl)phenyl]-1,3,4-oxadiazol-2-amine] | 1.7 | 118 ± 1.46 µM | 71.32 ± 0.63 µM | MIC ([3]; H37RV): 125 to 250 µM (≈ 39.2 to 78.3 µg/mL); MIC [4]: 62.5 to 250 µM (≈ 19.6 to 78.3 µg/mL); MIC [7]: ≥ 62.5 µM |
| NNC(=O)c1ccncc1 [isoniazid, isonicotinoylhydrazide, reference compound] | – | – | – | MIC ([3]; M. tuberculosis 331/88 (H37Rv)): 1 µM (≈ 0.137 µg/mL) |
